The record followed here is article PMC5479785, “Tandem malonate-based glucosides (TMGs) for membrane protein structural studies” (Scientific Reports, 2017).

The target of assay [1] is T1, MelBSt (Salmonella enterica, UniProt P30878).
T1 construct: gene melB; wild type, C-terminal 10-His tag, plasmid pK95ΔAHB/WT MelBSt/CH10; detergent extract of RSO vesicles of E. coli DW2
Description: Trp to D2G FRET in detergent extract of membrane vesicles. Format: biochemical. The settings on record: 10 μM D2G, 100 mM KPi, 100 mM NaCl, pH 7.5, DDM; fluorescent ligand.

The target in assay [2] is T2, MelBEc (Escherichia coli, UniProt P02921).
T2 construct: gene melB; expressed in E. coli DW2 (ΔmelB ΔlacZY); detergent extract of RSO membrane vesicles
The description is as above. It is filed as biochemical. The settings on record: 10 μM D2G, 100 mM KPi, 100 mM NaCl, pH 7.5, TMG-A12 or TMG-A13; fluorescent ligand.

The target in assay [3] is T1, MelBSt. Description: reversal of Trp to D2G FRET by displacement. It is filed as biochemical. The conditions noted are these: excess melibiose against 10 μM D2G, 100 mM KPi, 100 mM NaCl, pH 7.5, DDM; competitive.
Assay [4] has as its target T2, MelBEc. In words: reversal of Trp to D2G FRET by displacement. It is filed as biochemical. The settings on record: excess melibiose against 10 μM D2G, 100 mM KPi, 100 mM NaCl, pH 7.5, TMG-A12 or TMG-A13; competitive.
Assay [5] concerns the target T3, β2AR (Homo sapiens, UniProt P07550).
T3 construct: gene ADRB2; expressed in Sf9 insect cells (baculovirus), purified in DDM
In words: radioligand binding, G-50 column separation. The settings on record: 10 nM [3H]-DHA, 20 mM HEPES pH 7.5, 100 mM NaCl, 0.5 mg/mL BSA, DDM or TMG detergent; antagonist; labelled compound.

SMILES strings stand for the structures.

T2 sequence (P02921 2-473): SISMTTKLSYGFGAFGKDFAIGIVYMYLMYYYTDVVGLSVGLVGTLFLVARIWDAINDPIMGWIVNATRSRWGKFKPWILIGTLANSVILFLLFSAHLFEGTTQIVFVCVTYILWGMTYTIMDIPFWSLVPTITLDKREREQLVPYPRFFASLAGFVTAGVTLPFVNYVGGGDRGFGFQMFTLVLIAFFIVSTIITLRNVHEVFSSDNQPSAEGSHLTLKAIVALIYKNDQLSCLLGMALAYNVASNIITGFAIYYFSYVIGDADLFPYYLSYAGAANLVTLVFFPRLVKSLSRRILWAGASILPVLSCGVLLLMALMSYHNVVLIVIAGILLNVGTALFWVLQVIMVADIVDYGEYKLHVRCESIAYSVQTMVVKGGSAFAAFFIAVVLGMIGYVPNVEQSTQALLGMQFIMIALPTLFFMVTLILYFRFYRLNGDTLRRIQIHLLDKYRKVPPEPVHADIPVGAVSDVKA
T1 sequence (P30878 whole entry): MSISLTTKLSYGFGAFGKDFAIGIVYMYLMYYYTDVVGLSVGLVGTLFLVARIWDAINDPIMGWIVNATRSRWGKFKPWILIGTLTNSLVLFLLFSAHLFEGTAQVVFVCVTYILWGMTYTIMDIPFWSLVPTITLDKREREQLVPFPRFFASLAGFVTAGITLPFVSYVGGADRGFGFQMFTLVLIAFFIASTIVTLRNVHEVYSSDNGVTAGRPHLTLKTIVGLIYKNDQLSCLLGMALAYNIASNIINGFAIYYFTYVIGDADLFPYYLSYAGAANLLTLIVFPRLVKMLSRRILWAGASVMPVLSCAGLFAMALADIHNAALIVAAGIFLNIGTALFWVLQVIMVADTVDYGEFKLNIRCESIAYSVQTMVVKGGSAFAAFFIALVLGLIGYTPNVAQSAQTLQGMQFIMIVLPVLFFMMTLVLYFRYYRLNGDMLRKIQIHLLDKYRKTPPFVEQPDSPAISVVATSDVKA
T3 sequence (P07550 whole entry): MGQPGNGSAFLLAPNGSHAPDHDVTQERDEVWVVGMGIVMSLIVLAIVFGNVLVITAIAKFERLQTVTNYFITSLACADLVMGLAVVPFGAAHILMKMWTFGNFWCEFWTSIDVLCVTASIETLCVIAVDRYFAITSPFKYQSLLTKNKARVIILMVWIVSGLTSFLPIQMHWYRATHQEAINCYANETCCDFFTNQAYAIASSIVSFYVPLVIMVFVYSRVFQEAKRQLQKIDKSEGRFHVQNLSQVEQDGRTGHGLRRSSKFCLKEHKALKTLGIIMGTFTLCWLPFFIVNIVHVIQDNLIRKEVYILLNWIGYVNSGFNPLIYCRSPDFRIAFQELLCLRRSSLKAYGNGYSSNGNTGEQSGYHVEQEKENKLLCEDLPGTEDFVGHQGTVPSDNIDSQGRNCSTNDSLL

For the compound `CN(C)c1cccc2c(S(=O)(=O)NCCS[C@@H]3O[C@H](CO)[C@H](O)[C@H](O)[C@H]3O)cccc12` [D2G, 2′-(N-dansyl)aminoalkyl-1-thio-β-D-galactopyranoside], the “Trp→D2G FRET” value was “a functional MelBSt gives an increase in fluorescence intensity induced by Trp→ D^2G FRET” in assay [1] and “TMG-A12 or TMG-A13 resulted in a functional MelBEc as demonstrated by large changes in FRET signal” in assay [2]. `OC[C@H]1O[C@H](OC[C@H]2OC(O)[C@H](O)[C@@H](O)[C@@H]2O)[C@H](O)[C@@H](O)[C@H]1O` (some centres unmarked) [melibiose]: the FRET reversal entry in assay [3] is recorded as “Upon addition of melibiose, the DDM-solubilized MelBSt gave a large reversal in the FRET signal”; in assay [4], “reversed by adding a non-fluorescent sugar substrate (i.e., melibiose)”. Consider `CCCc1ccccc1OCC(O)CNC(C)C` (centres unmarked) [[3H]-dihydroalprenolol], for which the “[3H]-DHA binding” value in assay [5] is “receptor stability was assessed via a ligand binding assay using the antagonist, [^3H]-dihydroalprenolol”.
